Reference: patent US4605642A, “CRF antagonists” (The Salk Institute for Biological Studies, priority 1984, dated 1986)
Square brackets hold non-standard residues; d marks the D form. Peptide text beside a SMILES is read from it. Nle = CCCC[C@H](N)C(=O)O

What was measured:
[1] = system: secretion of ACTH by cultured rat pituitary cells; assay: Blocking of oCRF-stimulated ACTH secretion by cultured rat pituitary cells; type: cell-based; settings: general procedure set forth in Example III
Experimental: (§1) The effectiveness of synthetic CRF antagonists to block the secretion of ACTH and β-endorphin by cultured rat pituitary cells is measured using the procedure as generally set forth in Vale et al., Endocrinology, 91, 562 (1972). In vivo testing is carried out using the general procedure set forth in C. Rivier et al., Science, 218, 377 (1982).

[2] = system: secretion of β-endorphin by cultured rat pituitary cells; assay: Blocking of β-endorphin (β-END-LI) secretion by cultured rat pituitary cells; type: cell-based; settings: general procedure set forth in Example III
Experimental: as §1

Compound | inhibition of the secretion of ACTH (in words) [1] | inhibition of the secretion of β-END-LI (in words) [2]
H-DLSLELLRKMIEIAKQEKEKQQAANNRLLMDTI-NH2 [[Ala^21, Met^37]-sauvagine(8-40)] | inhibits the secretion | inhibits the secretion
CCCC[C@H](NC(=O)[C@@H](NC(=O)[C@H](CCC(=O)O)NC(=O)[C@H](CC(C)C)NC(=O)[C@H](CC(C)C)NC(=O)[C@H](CCCCN)NC(=O)[C@H](CCCNC(=N)N)NC(=O)[C@H](CC(N)=O)NC(=O)[C@H](CO)NC(=O)[C@H](Cc1c[nH]cn1)NC(=O)[C@H](C)NC(=O)[C@H](CCC(N)=O)NC(=O)[C@H](CCC(N)=O)NC(=O)[C@H](C)NC(=O)[C@H](CC(C)C)NC(=O)[C@H](CCC(N)=O)NC(=O)[C@H](CCC(=O)O)NC(=O)[C@H](C)NC(=O)[C@H](CCCNC(=N)N)NC(=O)[C@H](C)NC(=O)[C@H](C)NC(=O)[C@H](CCC(=O)O)NC(=O)[C@H](CC(C)C)NC(=O)[C@@H](NC(=O)[C@H](CCC(=O)O)NC(=O)[C@H](CCCNC(=N)N)NC(=O)[C@H](CC(C)C)NC(=O)[C@H](CC(C)C)NC(=O)[C@H](Cc1c[nH]cn1)NC(=O)[C@H](Cc1ccccc1)NC(=O)[C@@H](NC(=O)[C@H](CC(C)C)NC(=O)[C@@H](N)CC(=O)O)[C@@H](C)O)C(C)C)[C@@H](C)CC)C(N)=O [[Ala^21, Leu^38, Nle^41]-hCRF(9-41)] (H-DLTFHLLREVLEAARAEQLAQQAHSNRKLLEI[Nle]-NH2) | inhibits the secretion | inhibits the secretion
CCCC[C@H](N)C(=O)N[C@@H](CC(=O)O)C(=O)N[C@@H](CC(C)C)C(=O)N[C@@H](CO)C(=O)N[C@@H](Cc1ccccc1)C(=O)N[C@@H](Cc1c[nH]cn1)C(=O)N[C@@H](CC(C)C)C(=O)N[C@@H](CC(C)C)C(=O)N[C@@H](CCCNC(=N)N)C(=O)N[C@@H](CCC(=O)O)C(=O)N[C@H](C(=O)N[C@@H](CC(C)C)C(=O)N[C@@H](CCC(=O)O)C(=O)N[C@@H](CCSC)C(=O)N[C@@H](C)C(=O)N[C@@H](CCCNC(=N)N)C(=O)N[C@@H](C)C(=O)N[C@@H](CCC(=O)O)C(=O)N[C@@H](CCC(N)=O)C(=O)N[C@@H](CC(C)C)C(=O)N[C@@H](C)C(=O)N[C@@H](CCC(N)=O)C(=O)N[C@@H](CCC(N)=O)C(=O)N[C@@H](C)C(=O)N[C@@H](Cc1c[nH]cn1)C(=O)N[C@@H](CC(C)C)C(=O)N[C@@H](CC(N)=O)C(=O)N[C@@H](CCCNC(=N)N)C(=O)N[C@@H](CCCCN)C(=O)N[C@@H](CC(C)C)C(=O)N[C@@H](CCSC)C(=O)N[C@@H](CCC(=O)O)C(=O)N[C@H](C(=O)N[C@H](C(N)=O)[C@@H](C)CC)[C@@H](C)CC)C(C)C [[Nle^8, Ser^11, Leu^33]-hCRF(8-41)] (H-[Nle]DLSFHLLREVLEMARAEQLAQQAHLNRKLMEII-NH2) | inhibits the secretion | inhibits the secretion
CCCC[C@H](NC(=O)[C@@H](NC(=O)[C@@H](N)CC(C)C)[C@@H](C)O)C(=O)N[C@@H](Cc1c[nH]cn1)C(=O)N[C@@H](CC(C)C)C(=O)N[C@@H](CC(C)C)C(=O)N[C@@H](CCCNC(=N)N)C(=O)N[C@@H](CCC(=O)O)C(=O)N[C@H](C(=O)N[C@@H](CC(C)C)C(=O)N[C@@H](CCC(=O)O)C(=O)N[C@@H](CCSC)C(=O)N[C@@H](C)C(=O)N[C@@H](CCCNC(=N)N)C(=O)N[C@@H](C)C(=O)N[C@@H](CCC(=O)O)C(=O)N[C@@H](CCC(N)=O)C(=O)N[C@@H](CC(C)C)C(=O)N[C@@H](C)C(=O)N[C@@H](CCC(N)=O)C(=O)N[C@@H](CCC(N)=O)C(=O)N[C@@H](C)C(=O)N[C@@H](Cc1c[nH]cn1)C(=O)N[C@@H](CO)C(=O)N[C@@H](CC(N)=O)C(=O)N[C@@H](CCCNC(=N)N)C(=O)N[C@@H](CCCCN)C(=O)N[C@@H](CC(C)C)C(=O)N[C@@H](CCSC)C(=O)N[C@@H](CCC(=O)O)C(=O)N[C@H](C(=O)N[C@H](C(N)=O)[C@@H](C)CC)[C@@H](C)CC)C(C)C [[Nle^12]-hCRF(10-41)] (H-LT[Nle]HLLREVLEMARAEQLAQQAHSNRKLMEII-NH2) | inhibits the secretion | inhibits the secretion
CCCC[C@H](NC(=O)[C@H](CCC(=O)O)NC(=O)[C@H](CC(C)C)NC(=O)[C@H](CCCC)NC(=O)[C@H](CCC(=O)O)NC(=O)[C@H](CCCNC(=N)N)NC(=O)[C@H](CC(C)C)NC(=O)[C@H](CC(C)C)NC(=O)[C@H](Cc1c[nH]cn1)NC(=O)[C@H](Cc1ccccc1)NC(=O)[C@@H](NC(=O)[C@H](CC(C)C)NC(=O)[C@@H](N)CC(=O)O)[C@@H](C)O)C(=O)N[C@@H](C)C(=O)N[C@@H](CCCCN)C(=O)N[C@@H](C)C(=O)N[C@@H](CCC(=O)O)C(=O)N[C@@H](CCC(N)=O)C(=O)N[C@@H](CCC(=O)O)C(=O)N[C@@H](C)C(=O)N[C@@H](CCC(=O)O)C(=O)N[C@@H](CCC(N)=O)C(=O)N[C@@H](C)C(=O)N[C@@H](C)C(=O)N[C@@H](CC(C)C)C(=O)N[C@@H](CC(N)=O)C(=O)N[C@@H](CCCNC(=N)N)C(=O)N[C@@H](CC(C)C)C(=O)N[C@@H](CC(C)C)C(=O)N[C@@H](CC(C)C)C(=O)N[C@@H](CCC(=O)O)C(=O)N[C@@H](CCC(=O)O)C(=O)N[C@@H](C)C(N)=O [[Nle^18,21]-AHC(9-41)] (H-DLTFHLLRE[Nle]LE[Nle]AKAEQEAEQAALNRLLLEEA-NH2) | inhibits the secretion | inhibits the secretion
H-LSLELLRKMIEARKQEKEKQQAANNRLLLDII-NH2 | inhibits the secretion | inhibits the secretion
H-DLTFALLREMLEMAKAEQEAEQAALNRLLLEEA-NH2 [[Ala^13]-AHC(9-41)] | inhibits the secretion | inhibits the secretion
Ac-DLTFHLLREVLEMARAEQLAQQAHSNRKLMDII-NH2 [[Acetyl-Asp^9, Asp^39]-hCRF(9-41)] | inhibits the secretion | inhibits the secretion
H-LDLTLELLREMLEMEKAEKEAEQAALNRLLLEEA-NH2 [[Glu^13,22, Leu^12, Lys^26]-AHC(8-41)] | inhibits the secretion | inhibits the secretion
H-DLTFHLLRNMIEMARNENQREQAGLNRKYLDEV-NH2 [Carp Urotensin I(9-41)] | inhibits the secretion | inhibits the secretion
H-DLTLELLREMLEMAKAEQEAEQAALNRLLLEEA-NH2 [[Leu^12, Glu^13]-AHC(9-41)] | inhibits the secretion | inhibits the secretion
H-IDLTFHLLRNMIEMARNENQREQAGLNRKYLDEV-NH2 [Carp Urotensin I(8-41)] | inhibits the secretion | inhibits the secretion
H-DLTFELLREVLEVARAEQLAQQAHSNRKLMEII-NH2 [[Glu^13, Val^21]-hCRF(9-41)] | inhibits the secretion | inhibits the secretion
CCCC[C@H](NC(=O)[C@H](CCC(=O)O)NC(=O)[C@H](CC(C)C)NC(=O)[C@H](CCCC)NC(=O)[C@H](CCC(=O)O)NC(=O)[C@H](CCCNC(=N)N)NC(=O)[C@H](CC(C)C)NC(=O)[C@H](CC(C)C)NC(=O)[C@H](Cc1c[nH]cn1)NC(=O)[C@H](Cc1ccccc1)NC(=O)[C@@H](NC(=O)[C@H](CC(C)C)NC(=O)[C@H](CC(=O)O)NC(=O)[C@@H](N)CC(C)C)[C@@H](C)O)C(=O)N[C@@H](C)C(=O)N[C@@H](CCCCN)C(=O)N[C@@H](C)C(=O)N[C@@H](CCC(=O)O)C(=O)N[C@@H](CCC(N)=O)C(=O)N[C@@H](CCC(=O)O)C(=O)N[C@@H](C)C(=O)N[C@@H](CCC(=O)O)C(=O)N[C@@H](CCC(N)=O)C(=O)N[C@@H](C)C(=O)N[C@@H](C)C(=O)N[C@@H](CC(C)C)C(=O)N[C@@H](CC(N)=O)C(=O)N[C@@H](CCCNC(=N)N)C(=O)N[C@@H](CC(C)C)C(=O)N[C@@H](CC(C)C)C(=O)N[C@@H](CC(C)C)C(=O)N[C@@H](CCC(=O)O)C(=O)N[C@@H](CCC(=O)O)C(=O)N[C@@H](C)C(N)=O [[Nle^18,21]-AHC(8-41)] (H-LDLTFHLLRE[Nle]LE[Nle]AKAEQEAEQAALNRLLLEEA-NH2) | inhibits the secretion | inhibits the secretion
H-LDLTFHLLREVLEMAKAEQLAQQAHSNRKLLEII-NH2 [[Lys^23, Leu^38]-hCRF(8-41)] | inhibits the secretion | inhibits the secretion
CCCC[C@H](NC(=O)[C@H](CCC(=O)O)NC(=O)[C@H](CC(C)C)NC(=O)[C@@H](NC(=O)[C@H](CCC(=O)O)NC(=O)[C@H](CCCNC(=N)N)NC(=O)[C@H](CC(C)C)NC(=O)[C@H](CC(C)C)NC(=O)[C@H](Cc1c[nH]cn1)NC(=O)[C@H](Cc1ccccc1)NC(=O)[C@@H](NC(=O)[C@H](CC(C)C)NC(=O)[C@@H](N)CC(=O)O)[C@@H](C)O)C(C)C)C(=O)N[C@@H](C)C(=O)N[C@@H](CCCNC(=N)N)C(=O)N[C@@H](C)C(=O)N[C@@H](CCC(=O)O)C(=O)N[C@@H](CCC(N)=O)C(=O)N[C@@H](CC(C)C)C(=O)N[C@@H](C)C(=O)N[C@@H](CCC(N)=O)C(=O)N[C@@H](CCC(N)=O)C(=O)N[C@@H](C)C(=O)N[C@@H](Cc1ccc(O)cc1)C(=O)N[C@@H](CO)C(=O)N[C@@H](CC(N)=O)C(=O)N[C@@H](CCCNC(=N)N)C(=O)N[C@@H](CCCCN)C(=O)N[C@@H](CC(C)C)C(=O)N[C@@H](CCSC)C(=O)N[C@@H](CCC(=O)O)C(=O)N[C@H](C(=O)N[C@H](C(N)=O)[C@@H](C)CC)[C@@H](C)CC [[Nle^21, Tyr^32]-hCRF(9-41)] (H-DLTFHLLREVLE[Nle]ARAEQLAQQAYSNRKLMEII-NH2) | inhibits the secretion | inhibits the secretion
